# Laboratory results reported in PubChem BioAssay (NCI).
#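 These data come from cells grown in 96-well plates and exposed to compound for 48 hours at five concentrations. GI50 = concentration required for 50% inhibition of growth. TGI denotes the concentration required for complete inhibition of growth.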
# Key:
# Test in all cases: inhibition of tumour cell growth, NCI panel, 48 h
# [1] = tested on: OVCAR-8 ovarian
# [2] = tested on: U251 CNS
# [3] = tested on: SF-539 CNS
# [4] = tested on: MDA-MB-231 breast
# [5] = tested on: MOLT-4 leukemia
# [6] = tested on: UACC-62 melanoma
# [7] = tested on: 786-0 renal
# [8] = tested on: SNB-19 CNS
# [9] = tested on: NCI-H23 lung
# [10] = tested on: OVCAR-5 ovarian
# [11] = tested on: SF-268 CNS
# [12] = tested on: NCI-H226 lung
# [13] = tested on: A549 NSCLC
# [14] = tested on: UO-31 renal
# [15] = tested on: NCI-H460 lung
# [16] = tested on: M14 melanoma
# [17] = tested on: HCT-15 colon
# [18] = tested on: SK-MEL-28 melanoma
# [19] = tested on: CCRF-CEM leukemia
# [20] = tested on: NCI-H522 lung
# [21] = tested on: HT29 colon
# [22] = tested on: SF-295 CNS
# [23] = tested on: SNB-75 CNS
# [24] = tested on: COLO 205 colon
# [25] = tested on: NCI/ADR-RES ovarian
# [26] = tested on: HOP-92 NSCLC
# [27] = tested on: RPMI-8226 leukemia
# [28] = tested on: PC-3 prostate
# [29] = tested on: K-562 leukemia
# [30] = tested on: SK-MEL-2 melanoma
# [31] = tested on: DU-145 prostate
# [32] = tested on: EKVX NSCLC
# [33] = tested on: KM12 colon
# [34] = tested on: HOP-62 NSCLC
# [35] = tested on: ACHN renal
# [36] = tested on: TK-10 renal
# [37] = tested on: BT-549 breast
# [38] = tested on: MDA-MB-435
# [39] = tested on: SW-620 colon
# [40] = tested on: HS 578T breast
# [41] = tested on: HCT-116 colon
# [42] = tested on: IGROV1 ovarian
# [43] = tested on: MALME-3M melanoma
# [44] = tested on: OVCAR-4 ovarian
# [45] = tested on: T-47D breast
# [46] = tested on: MCF7 breast
# [47] = tested on: SN12C renal
# [48] = tested on: SK-OV-3 ovarian
# [49] = tested on: SK-MEL-5 melanoma
# [50] = tested on: HCC-2998 colon
# [51] = tested on: CAKI-1 renal
# [52] = tested on: UACC-257 melanoma
# [53] = tested on: RXF 393 renal
# [54] = tested on: OVCAR-3 ovarian
# [55] = tested on: A498 renal
# [56] = tested on: LOX IMVI melanoma
# [57] = tested on: HL-60(TB) leukemia
# [58] = tested on: SR leukemia
structure (smiles),measurement,setting,value
CO/N=C(/C)c1cccc(Nc2cc(-n3nnc4ccccc43)nc3ccccc23)c1,GI50,[1],87.1 µM
same,TGI,[1],> 100 µM
same,GI50,[2],> 100 µM
same,TGI,[2],> 100 µM
same,GI50,[3],45.5 µM
same,TGI,[3],> 100 µM
same,GI50,[4],7.55 µM
same,TGI,[4],60.2 µM
same,GI50,[5],7.18 µM
same,TGI,[5],> 100 µM
same,GI50,[6],25.2 µM
same,TGI,[6],> 100 µM
same,GI50,[7],45.5 µM
same,TGI,[7],> 100 µM
same,GI50,[8],30.2 µM
same,TGI,[8],> 100 µM
same,GI50,[9],33.6 µM
same,TGI,[9],> 100 µM
same,GI50,[10],41.7 µM
same,TGI,[10],> 100 µM
same,GI50,[11],30.5 µM
same,TGI,[11],> 100 µM
same,GI50,[12],27.3 µM
same,TGI,[12],> 100 µM
same,GI50,[13],38.7 µM
same,TGI,[13],> 100 µM
same,GI50,[14],> 100 µM
same,TGI,[14],> 100 µM
same,GI50,[15],28 µM
same,TGI,[15],> 100 µM
same,GI50,[16],37.4 µM
same,TGI,[16],> 100 µM
same,GI50,[17],31.8 µM
same,TGI,[17],> 100 µM
same,GI50,[18],> 100 µM
same,TGI,[18],> 100 µM
same,GI50,[19],20.7 µM
same,TGI,[19],> 100 µM
same,GI50,[20],> 100 µM
same,TGI,[20],> 100 µM
same,GI50,[21],11.8 µM
same,TGI,[21],> 100 µM
same,GI50,[22],15 µM
same,TGI,[22],64.1 µM
same,GI50,[23],> 100 µM
same,TGI,[23],> 100 µM
same,GI50,[24],> 100 µM
same,TGI,[24],> 100 µM
same,GI50,[25],61.9 µM
same,TGI,[25],> 100 µM
same,GI50,[26],3.98 µM
same,TGI,[26],37.4 µM
same,GI50,[27],15.1 µM
same,TGI,[27],> 100 µM
same,GI50,[28],8.64 µM
same,TGI,[28],61.9 µM
same,GI50,[29],15.2 µM
same,TGI,[29],> 100 µM
same,GI50,[30],> 100 µM
same,TGI,[30],> 100 µM
same,GI50,[31],40.4 µM
same,TGI,[31],> 100 µM
same,GI50,[32],27.3 µM
same,TGI,[32],86.2 µM
same,TGI,[33],5.78 µM
same,GI50,[34],19.6 µM
same,TGI,[34],53.6 µM
same,GI50,[35],42.3 µM
same,TGI,[35],> 100 µM
same,GI50,[36],26 µM
same,TGI,[36],> 100 µM
same,GI50,[37],63.2 µM
same,TGI,[37],> 100 µM
same,GI50,[38],14.8 µM
same,TGI,[38],39.4 µM
same,GI50,[39],34.1 µM
same,TGI,[39],> 100 µM
same,GI50,[40],42.8 µM
same,TGI,[40],> 100 µM
same,GI50,[41],27 µM
same,TGI,[41],> 100 µM
same,GI50,[42],> 100 µM
same,TGI,[42],> 100 µM
same,GI50,[43],16.1 µM
same,TGI,[43],58 µM
same,GI50,[44],65.6 µM
same,TGI,[44],> 100 µM
same,GI50,[45],> 100 µM
same,TGI,[45],> 100 µM
same,GI50,[46],31.3 µM
same,TGI,[46],> 100 µM
same,GI50,[47],32.8 µM
same,TGI,[47],> 100 µM
same,GI50,[48],> 100 µM
same,TGI,[48],> 100 µM
same,GI50,[49],14.4 µM
same,TGI,[49],32.5 µM
same,GI50,[50],25.7 µM
same,TGI,[50],> 100 µM
same,GI50,[51],22.5 µM
same,TGI,[51],> 100 µM
same,GI50,[52],87.5 µM
same,TGI,[52],> 100 µM
Cc1cc(C)c2c(n1)sc1c(Nc3ccc(Cl)cc3)ncnc12,GI50,[1],< 0.01 µM
same,TGI,[1],> 100 µM
same,GI50,[2],< 0.01 µM
same,TGI,[2],> 100 µM
same,GI50,[3],< 0.01 µM
same,TGI,[3],0.0882 µM
same,GI50,[53],0.0195 µM
same,TGI,[53],0.0898 µM
same,GI50,[5],< 0.01 µM
same,TGI,[5],> 100 µM
same,GI50,[6],< 0.01 µM
same,GI50,[7],< 0.01 µM
same,GI50,[8],< 0.01 µM
same,TGI,[8],> 100 µM
same,GI50,[54],2.39 µM
same,TGI,[54],> 100 µM
same,GI50,[55],< 0.0133 µM
same,TGI,[55],0.491 µM
same,GI50,[9],< 0.01 µM
same,TGI,[9],> 100 µM
same,GI50,[10],< 0.0125 µM
same,TGI,[10],> 100 µM
same,GI50,[11],< 0.01 µM
same,TGI,[11],> 100 µM
same,GI50,[12],0.0333 µM
same,TGI,[12],5.67 µM
same,GI50,[13],< 0.01 µM
same,TGI,[13],> 100 µM
same,GI50,[14],< 0.01 µM
same,GI50,[15],< 0.01 µM
same,TGI,[15],> 100 µM
same,GI50,[16],< 0.01 µM
same,GI50,[17],< 0.01 µM
same,TGI,[17],> 100 µM
same,GI50,[18],4.4 µM
same,TGI,[18],> 100 µM
same,GI50,[19],< 0.01 µM
same,TGI,[19],> 100 µM
same,GI50,[20],< 0.01 µM
same,TGI,[20],> 100 µM
same,GI50,[21],< 0.0152 µM
same,TGI,[21],> 100 µM
same,GI50,[22],0.0209 µM
same,TGI,[22],> 100 µM
same,GI50,[23],0.017 µM
same,TGI,[23],> 26.4 µM
same,GI50,[24],0.0314 µM
same,TGI,[24],> 100 µM
same,GI50,[25],< 0.01 µM
same,TGI,[25],> 100 µM
same,GI50,[26],0.0288 µM
same,GI50,[27],0.0197 µM
same,TGI,[27],> 100 µM
same,GI50,[28],0.199 µM
same,TGI,[28],> 100 µM
same,GI50,[29],0.0154 µM
same,TGI,[29],> 100 µM
same,GI50,[30],> 100 µM
same,TGI,[30],> 100 µM
same,GI50,[31],< 0.01 µM
same,TGI,[31],> 100 µM
same,GI50,[33],0.139 µM
same,TGI,[33],> 100 µM
same,GI50,[34],< 0.01 µM
same,GI50,[35],< 0.01 µM
same,TGI,[35],> 51.2 µM
same,GI50,[36],> 100 µM
same,TGI,[36],> 100 µM
same,GI50,[37],< 0.0161 µM
same,TGI,[37],> 100 µM
same,GI50,[38],< 0.01 µM
same,TGI,[38],> 100 µM
same,GI50,[39],< 0.01 µM
same,TGI,[39],> 100 µM
same,GI50,[40],> 100 µM
same,TGI,[40],> 100 µM
same,GI50,[41],< 0.01 µM
same,TGI,[41],> 100 µM
same,GI50,[42],> 100 µM
same,TGI,[42],> 100 µM
same,GI50,[56],< 0.01 µM
same,TGI,[56],> 100 µM
same,GI50,[43],19.3 µM
same,TGI,[43],> 100 µM
same,GI50,[44],> 100 µM
same,TGI,[44],> 100 µM
same,GI50,[45],0.0299 µM
same,TGI,[45],> 100 µM
same,GI50,[46],< 0.01 µM
same,TGI,[46],> 100 µM
same,GI50,[47],0.0312 µM
same,TGI,[47],> 100 µM
same,GI50,[48],0.0418 µM
same,TGI,[48],> 100 µM
same,GI50,[49],< 0.0141 µM
same,TGI,[49],> 100 µM
same,GI50,[57],< 0.01 µM
same,GI50,[50],7.4 µM
same,TGI,[50],> 100 µM
same,GI50,[51],< 0.01 µM
same,TGI,[51],> 27.6 µM
same,GI50,[52],0.107 µM
same,TGI,[52],> 100 µM
same,GI50,[58],< 0.01 µM
same,TGI,[58],38.6 µM
